Experimental data taken from PMC2694832, “Pharmacokinetics, tissue distribution and mass balance of radiolabeled dihydroartemisinin in male rats” (Malaria Journal, 2009).

Test: Tissue distribution of [^14C] DHA
Assay type: in vivo, rats
Conditions: for Distribution of radioactivity / % of total AUC / Half-lives of radioactivity / Tissue AUC of radioactivity / % total recovery: male rats i.v. 3 mg/20 μCi/kg; for % total recovery: all measured tissues
Protocol: Rats treated with a single [^14C] DHA dose of 3 mg/20 μCi/kg intravenously (5 rats per group) were anesthaetized by isofluorane and euthanized via cardiac puncture at 1, 6, 24, 48, 72, 96, and 192 hours, post-dosing. Blood, liver, brain, eyes, adrenals, muscle, lungs, heart, liver, kidneys, spleen, stomach, small intestine, large intestine, perirenal fat and bone marrow samples were removed from each animal by gross dissection. The gastrointestinal tract (GI) was separated into the stomach (oesophagus and stomach), small intestine, and large intestine. Contents were procured from each GI segment. After flushing with saline, these and other tissues were stored. Tissues were rinsed gently, but thoroughly with water to remove remaining traces of blood before storage. Dissecting instruments were also washed between tissue procurements to avoid cross-contamination.
For most of the tissues 20% (w/w) aqueous homogenates of the tissue were prepared. Aqueous homogenates of the faecal and GI content samples were also prepared. Metabolism cages were washed with a solution of 2% Count-off® and the volume was measured. Radioactivity in the plasma samples and in aliquots (approx. 0.02–1.0 ml) of urine and cage washings was determined. The blood cells (primarily erythrocytes), perirenal fat (approx. 0.2 g), bone marrow samples (approx. 0.1 ml), and approximately 300-μl aliquots of the homogenates of faeces, liver, kidneys, heart, brain, stomach and carcass were solubilized with SolvableTM tissue solubilizer (Perkin-Elmer Life and Analytical Sciences, Boston, MA). The homogenates of faeces, stomach content, and intestinal contents were extracted with 50% methanol for 24 hours. Aliquots of blood and pooled urine samples from selected intervals were also analysed for DHA content directly.
Total radioactivity in the collected tissue samples were quantified in duplicate. Weighed tissue aliquots (~0.2 g) were digested overnight in 2 ml of Solvable® tissue solubilizer (Perkin-Elmer Life and Analytical Sciences, Boston, MA) at 50°C. Coloured samples were decolourized by adding a maximum of 0.2 ml of 30% H2O2 for 30–60 minutes. Scintillation cocktail (Hyonic Fluor; Perkin-Elmer Boston. Massachusetts, USA) was then added and radioactivity determined in a Perkin-Elmer Tri-Carb 3100 TR scintillation spectrophotometer (Packard Instrument Co., Downers Grove, Illinois, USA). Faeces and intestinal contents were thoroughly homogenized before taking aliquots. Plasma was also analysed using the HPLC-ECD system to measure the concentration of unchanged DHA, as described by Li et al.

For `C[C@@H]1CC[C@H]2[C@@H]([14CH3])C(O)O[C@@H]3O[C@@]4(C)CC[C@@H]1[C@]32OO4` (stereo partly drawn) [[^14C] DHA, [16-^14C] DHA], the Distribution of radioactivity (Lungs, 24 hr) was 398.52 ng equivalents/tissue gram, the Distribution of radioactivity (Lungs, 48 hr) was 305.34 ng equivalents/tissue gram and the Distribution of radioactivity (Lungs, 72 hr) was 303.10 ng equivalents/tissue gram. For the same molecule, the Distribution of radioactivity (Lungs, 96 hr) was 236.70 ng equivalents/tissue gram, the Distribution of radioactivity (Lungs, 192 hr) was 221.64 ng equivalents/tissue gram and the “% of total AUC” value (Lungs) was 2.03%. The Half-lives of radioactivity (Lungs) was 86.19 ± 18.00 h, the “Tissue AUC of radioactivity” value (Lungs) was 85,916 ng·hr/g and the “Tissue AUC of radioactivity” value (Lungs, listed as [^14C]-dihydroartemisinin) was 85916 ± 12999 ng·h/g. For the same molecule, the “% of total AUC” value (Muscle) was 0.86%, the Half-lives of radioactivity (Muscle) was 64.45 ± 13.54 h and the “Tissue AUC of radioactivity” value (Muscle) was 36371 ± 6994 ng·h/g. The Distribution of radioactivity (Plasma, 1 hr) was 591.34 ng equivalents/tissue gram, the Distribution of radioactivity (Plasma, 6 hr) was 540.83 ng equivalents/tissue gram and the Distribution of radioactivity (Plasma, 24 hr) was 216.03 ng equivalents/tissue gram. The Distribution of radioactivity (Plasma, 48 hr) was 93.02 ng equivalents/tissue gram, the “% of total AUC” value (Plasma) was 0.49% and the “Tissue AUC of radioactivity” value (Plasma) was 20750 ± 1031 ng·h/g. For the same molecule, the Half-lives of radioactivity (Plasma, listed as [^14C]-dihydroartemisinin) was 75.57 ± 7.34 h, the Distribution of radioactivity (SI Content, 1 hr) was 46426.85 ng equivalents/tissue gram and the Distribution of radioactivity (SI Content, 6 hr) was 11387.30 ng equivalents/tissue gram. For the same molecule, the Distribution of radioactivity (SI Content, 24 hr) was 2283.61 ng equivalents/tissue gram, the Distribution of radioactivity (SI Content, 48 hr) was 633.61 ng equivalents/tissue gram and the Distribution of radioactivity (SI Content, 72 hr) was 575.05 ng equivalents/tissue gram. For the same molecule, the Distribution of radioactivity (SI Content, 96 hr) was 176.57 ng equivalents/tissue gram, the Distribution of radioactivity (SI Content, 192 hr) was 250.03 ng equivalents/tissue gram and the “% of total AUC” value (SI Content) was 35.25%. For the same molecule, the Half-lives of radioactivity (SI Content) was 28.73 ± 9.05 h, the “Tissue AUC of radioactivity” value (SI Content) was 1492988 ± 63053 ng·h/g and the Distribution of radioactivity (Small intestine (SI), 1 hr) was 8155.95 ng equivalents/tissue gram. For the same molecule, the Distribution of radioactivity (Small intestine (SI), 6 hr) was 3014.58 ng equivalents/tissue gram, the Distribution of radioactivity (Small intestine (SI), 24 hr) was 821.84 ng equivalents/tissue gram and the Distribution of radioactivity (Small intestine (SI), 48 hr) was 335.42 ng equivalents/tissue gram. For the same molecule, the Distribution of radioactivity (Small intestine (SI), 72 hr) was 389.72 ng equivalents/tissue gram, the Distribution of radioactivity (Small intestine (SI), 96 hr) was 235.61 ng equivalents/tissue gram and the Distribution of radioactivity (Small intestine (SI), 192 hr) was 304.12 ng equivalents/tissue gram. The “% of total AUC” value (Small intestine (SI)) was 3.10%, the Half-lives of radioactivity (Small intestine (SI)) was 49.99 ± 34.89 h and the “Tissue AUC of radioactivity” value (Small intestine (SI)) was 131,264 ng·hr/g. The “Tissue AUC of radioactivity” value (Small intestine (SI), listed as [^14C]-dihydroartemisinin) was 131264 ± 24631 ng·h/g, the Distribution of radioactivity (Spleen, 1 hr) was 4,387 ng equivalents/tissue gram and the Distribution of radioactivity (Spleen, 1 hr, listed as [^14C]-dihydroartemisinin) was 4387.40 ng equivalents/tissue gram. For the same molecule, the Distribution of radioactivity (Spleen, 6 hr) was 3,685 ng equivalents/tissue gram, the Distribution of radioactivity (Spleen, 6 hr, listed as [^14C]-dihydroartemisinin) was 3684.97 ng equivalents/tissue gram and the Distribution of radioactivity (Spleen, 24 hr) was 3,061 ng equivalents/tissue gram. The Distribution of radioactivity (Spleen, 24 hr, listed as [^14C]-dihydroartemisinin) was 3061.40 ng equivalents/tissue gram, the Distribution of radioactivity (Spleen, 48 hr) was 4,216 ng equivalents/tissue gram and the Distribution of radioactivity (Spleen, 48 hr, listed as [^14C]-dihydroartemisinin) was 4216.03 ng equivalents/tissue gram. The Distribution of radioactivity (Spleen, 72 hr) was 4446.65 ng equivalents/tissue gram, the Distribution of radioactivity (Spleen, 96 hr) was 4464.57 ng equivalents/tissue gram and the Distribution of radioactivity (Spleen, 192 hr) was 5,170 ng equivalents/tissue gram. The Distribution of radioactivity (Spleen, 192 hr, listed as [^14C]-dihydroartemisinin) was 5170.22 ng equivalents/tissue gram, the “% of total AUC” value (Spleen) was 14.58% and the Half-lives of radioactivity (Spleen) was 114.02 ± 57.67 h. For the same molecule, the “Tissue AUC of radioactivity” value (Spleen) was 617,495 ng·hr/g, the “Tissue AUC of radioactivity” value (Spleen, listed as [^14C]-dihydroartemisinin) was 617495 ± 410768 ng·h/g and the Distribution of radioactivity (Stomach Content, 1 hr) was 36.03 ng equivalents/tissue gram. For the same molecule, the Distribution of radioactivity (Stomach Content, 6 hr) was 6289.79 ng equivalents/tissue gram, the Distribution of radioactivity (Stomach Content, 24 hr) was 22.45 ng equivalents/tissue gram and the Distribution of radioactivity (Stomach Content, 48 hr) was 98.12 ng equivalents/tissue gram. The Distribution of radioactivity (Stomach Content, 72 hr) was 18.69 ng equivalents/tissue gram, the Distribution of radioactivity (Stomach Content, 96 hr) was 11.76 ng equivalents/tissue gram and the Distribution of radioactivity (Stomach Content, 192 hr) was 343.37 ng equivalents/tissue gram. For the same molecule, the “% of total AUC” value (Stomach Content) was 0.53%, the Half-lives of radioactivity (Stomach Content) was 16.75 ± 16.30 h and the “Tissue AUC of radioactivity” value (Stomach Content) was 22362 ± 98089 ng·h/g. The Distribution of radioactivity (Stomach, 1 hr) was 1366.22 ng equivalents/tissue gram, the Distribution of radioactivity (Stomach, 6 hr) was 932.33 ng equivalents/tissue gram and the Distribution of radioactivity (Stomach, 24 hr) was 464.21 ng equivalents/tissue gram. The Distribution of radioactivity (Stomach, 48 hr) was 342.30 ng equivalents/tissue gram, the Distribution of radioactivity (Stomach, 72 hr) was 337.48 ng equivalents/tissue gram and the Distribution of radioactivity (Stomach, 96 hr) was 229.69 ng equivalents/tissue gram. The Distribution of radioactivity (Stomach, 192 hr) was 218.27 ng equivalents/tissue gram, the “% of total AUC” value (Stomach) was 1.94% and the Half-lives of radioactivity (Stomach) was 72.58 ± 12.98 h. For the same molecule, the “Tissue AUC of radioactivity” value (Stomach) was 82125 ± 13428 ng·h/g, the Distribution of radioactivity (Testis, 1 hr) was 624.14 ng equivalents/tissue gram and the Distribution of radioactivity (Testis, 6 hr) was 513.53 ng equivalents/tissue gram. The Distribution of radioactivity (Testis, 24 hr) was 176.47 ng equivalents/tissue gram, the Distribution of radioactivity (Testis, 48 hr) was 155.78 ng equivalents/tissue gram and the Distribution of radioactivity (Testis, 72 hr) was 151.29 ng equivalents/tissue gram. For the same molecule, the Distribution of radioactivity (Testis, 96 hr) was 123.54 ng equivalents/tissue gram, the Distribution of radioactivity (Testis, 192 hr) was 141.04 ng equivalents/tissue gram and the “Tissue AUC of radioactivity” value (Testis) was 48249 ± 6078 ng·h/g. For the same molecule, the Half-lives of radioactivity (Testis, listed as [^14C]-dihydroartemisinin) was 86.24 ± 40.68 h, the Half-lives of radioactivity (Total Amounts line) was 69.03 ± 22.13 h and the “Tissue AUC of radioactivity” value (Total Amounts line) was 4234952.00 ng·h/g. For the same molecule, the “% total recovery” value (1 hr) was 34.57%, the “% total recovery” value (6 hr) was 34.10% and the “% total recovery” value (24 hr) was 8.51%. The “% total recovery” value (48 hr) was 6.50%, the “% total recovery” value (72 hr) was 6.28% and the “% total recovery” value (96 hr) was 4.51%. For the same molecule, the “% total recovery” value (192 hr) was ~5.53%, the “radioactivity in whole blood higher than in plasma” value (throughout the period measured, rats i.v. 3 mg/20 μCi/kg) was 1.8–4.6 fold and the “total radioactivity found in the content of small intestine” value (within the first hour after i.v. dosing, rats) was 53–86%.
